Patent US6358928B1, “Peptidyl sulfonyl imidazolides as selective inhibitors of serine proteases” (Enzyme Systems Products, priority 1999, dated 2002)
Each block holds one molecule with its values, some of them ahead of it.

Experiments:
[1] = target: T1, human leukocyte elastase (Homo sapiens, UniProt P08246); assay: Inhibition of human leukocyte elastase (kobs/[I], spectrophotometric, MeOSuc-Ala-Ala-Pro-Val-AMC substrate); type: biochemical
T1 sequence (P08246 30-267): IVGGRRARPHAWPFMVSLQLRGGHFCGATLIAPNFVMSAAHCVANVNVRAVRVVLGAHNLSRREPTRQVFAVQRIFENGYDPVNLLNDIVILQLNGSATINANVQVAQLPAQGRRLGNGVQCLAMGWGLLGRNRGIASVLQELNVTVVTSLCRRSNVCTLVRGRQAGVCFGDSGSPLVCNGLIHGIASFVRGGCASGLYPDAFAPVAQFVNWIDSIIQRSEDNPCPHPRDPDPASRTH
Experimental: (§1) Z-Ala-Ala-AlaCH2SO2-Im, prepared as in Example 1, was assayed for serine protease inhibition activity against human leukocyte elastase. Various concentrations of inhibitor were rapidly mixed with fixed aliquots of enzyme and allowed to react for at least two half-lives. Aliquots of the treated enzyme were then assayed spectrophotometrically for protease activity using MeOSuc-Ala-Ala-Pro-Val-AMC as the substrate to determine kobs/[I]. […] 359-361 (1975), incorporated herein by reference.

[2] = target: T2, human cathepsin G (Homo sapiens, UniProt P08311); assay: Inhibition of human cathepsin G, assayed as in Example 2; type: biochemical; settings: present-tense example
T2 sequence (P08311 21-244): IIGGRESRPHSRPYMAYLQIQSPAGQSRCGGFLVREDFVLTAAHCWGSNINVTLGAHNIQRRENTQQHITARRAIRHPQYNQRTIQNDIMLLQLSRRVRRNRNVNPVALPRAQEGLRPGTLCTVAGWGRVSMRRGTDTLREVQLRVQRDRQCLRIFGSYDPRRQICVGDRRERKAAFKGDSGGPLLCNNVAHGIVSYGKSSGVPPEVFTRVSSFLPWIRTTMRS
Experimental: as §1
MeOSuc-Ala-Ala-Pro-ValCH2SO2-Im is prepared as in example 3 and assayed as in Example 2 for inhibition of human leukocyte elastase and human cathepsin G with the corresponding peptidyl chloromethane, MeOSuc-Gly-Leu-PheCH2SO2-Im, and Z-Ala-Ala-AlaCH2SO2-Im as comparator inhibitors.
Z-Gly-Leu-PheCH2SO2-Im is prepared as in Example 5, and is assayed as in Example 2 for inhibition of human cathepsin G and human leukocyte elastase with the corresponding peptidyl chloromethane, MeOSuc-Ala-Ala-Pro-ValCH2SO2-Im, and Z-Ala-Ala-AlaCH2SO2-Im as comparator inhibitors.

[3] = enzyme concentration 200 μM, substrate 100 μM, inhibitor 200 μM

Molecule: C[C@H](NC(=O)OCc1ccccc1)C(=O)N[C@@H](C)C(=O)N[C@@H](C)CS(=O)(=O)n1ccnc1 [Z-Ala-Ala-AlaCH2SO2-Im]
times more potent than the corresponding peptidyl chloromethane inhibitor ([1]; comparator value as reported in Tuhy and Powers, FEBS Letters 50, 359-361 (1975)): 45 times
kobs [1, 3]: 0.0025 s⁻¹
kobs/[I] [1, 3]: 12.7 M⁻¹ s⁻¹

kobs/[I] against human leukocyte elastase compared with MeOSuc-Ala-Ala-Pro-ValCH2SO2-Im ([1]; present-tense example): significantly lower
kobs/[I] against human cathepsin G compared with comparator inhibitors ([2]; comparators: corresponding peptidyl chloromethane, MeOSuc-Ala-Ala-Pro-ValCH2SO2-Im, Z-Ala-Ala-AlaCH2SO2-Im): significantly higher
Molecule: CC(C)C[C@H](NC(=O)CNC(=O)OCc1ccccc1)C(=O)N[C@@H](Cc1ccccc1)CS(=O)(=O)n1ccnc1 [Z-Gly-Leu-PheCH2SO2-Im]

kobs/[I] against human leukocyte elastase compared with comparator inhibitors ([1]; comparators: corresponding peptidyl chloromethane, MeOSuc-Gly-Leu-PheCH2SO2-Im, Z-Ala-Ala-AlaCH2SO2-Im, present-tense example): significantly higher
kobs/[I] against human cathepsin G compared with MeOSuc-Gly-Leu-PheCH2SO2-Im [2]: significantly lower
Molecule: MeOSuc-Ala-Ala-Pro-ValCH2SO2-Im
